Measurements as given in patent US20260258420A1, “COMPOSITIONS AND METHODS FOR THE TREATMENT OF HUMAN PAPILLOMAVIRUS-DRIVEN CANCERS” (priority 2023, published 2026).

Legend:
Assay type in all cases: cell-based
[1] = test system: HPV-negative cancer cell lines (UMSCC19, FaDu, and HN31); assay: BrdU-TUNEL apoptosis assay, HPV-negative cell lines; conditions: 50 nmol/L barasertib or 200 nmol/L alisertib, 72 hours or 2 doubling times
Method: (§1) BrdU positive apoptotic cells were detected and quantified. The bar graph indicates the percentage of apoptotic cells with fragmented DNA in HPV-positive and HPV-negative cell lines. Values are the means±the standard deviations for 3 independent experiments. FIG. 2B and FIG. 2C show immunoblots of cleaved PARP (Cl. PARP) and cleaved caspase-3 (Cl. Caspase-3) levels in 3-HPV positive and 3 HPV-negative cell lines after barasertib or alisertib treatment for 2 doubling times (FIG. 2B) or 72 hours (FIG. 2C). […] UM47, UMSCC47; GAPDH, glyceraldehyde 3-phosphate dehydrogenase.
(§2) To measure apoptosis, TUNEL staining was performed with an APO-BRDU Kit (BD Biosciences, San Jose, CA) and annexin V/propidium iodide staining with an FITC Annexin V Apoptosis Detection Kit PE (eBioscience, San Diego, CA) as described previously (Kalu, et al., Cancer Lett 2018; 431:64-72). […] Data were acquired with a 3-laser, 10-color Gallios flow cytometer (Beckman Coulter, Brea, CA) and analyzed using Kaluza software, RRID:SCR_016182 (Beckman Coulter, Brea, CA). […] Briefly, after drug treatment, cells were incubated with Senescence Green Probe, a fluorescence-based reagent that contains 2 galactoside moieties that make it specific to […]. The enzyme-cleaved product is retained within the cell, and it emits a fluorogenic signal that was measured at 490/514 nm using a flow cytometer. […]

[2] = test system: HPV-positive cancer cell lines (UMSCC47, CaSki, and MS751); assay: BrdU-TUNEL apoptosis assay, HPV-positive cell lines; conditions: 50 nmol/L barasertib or 200 nmol/L alisertib, 72 hours or 2 doubling times
Method: as §1, §2

HPV-negative cell lines = assay: Rb family protein and cleaved caspase-3 levels in HPV-negative cells
From the text: The effect of RB1 silencing on the expression of other RB family members (RBL1, RBL2) was also examined. It was observed that the levels of RBL1 remained unchanged with the treatment. However, the protein levels of RBL2 decreased with RB1 silencing as well as with alisertib treatment. The effect of RB1 silencing on RBL2 was likely due to pooled siRNAs. Using RB1 shRNA, an effect of RB1 depletion on RBL2 was not observed, but the enhanced alisertib-induced apoptosis was observed, supporting a role for RB1 alone in this effect.
A decrease of Rb protein expression following Aurora kinase inhibition was noted, that may be related to G2/M cell cycle arrest. Alternatively, it may be that the HPV negative cells with low Rb expression are the ones that survive after Aurora inhibition. To test this at the single cell level, two HPV-negative cell lines were co-stained with anti-Rb labelled with FITC conjugate and anti-cleaved caspase-3 labelled with TRITC and treated with alisertib or vehicle control. As expected in these unsynchronized cells, Rb expression was detectable, but modestly heterogeneous in control cells. […] Consistent with prior data, cells with higher Rb levels have no or very low levels of cleaved caspase-3. Cells with lower Rb levels have modest levels of cleaved caspase-3.

[3] = test system: HPV-positive cell lines (CASKI and SIHA); assay: Apoptosis immunoblot after BUB1B or MAD2L1 siRNA; conditions: 300 nmol/L, 24 hours
Method: FIG. 5A, two HPV-positive cell lines (CASKI and SIHA) were transfected with BUB1B or MAD2L1 siRNA and then treated for 24 hours with 300 nmol/L alisertib before lysis and immunoblotting with the indicated antibodies. FIG. 5B, TRIP13 was transiently overexpressed (Ox) in 2 HPV-positive cell lines that were treated for 24 hours with 300 nmol/L alisertib before lysis and immunoblotting for the indicated proteins. FIG. 5C, HPV-positive cell lines with TRIP13 overexpression were treated with 300 nmol/L alisertib for 32 hours and then stained for annexin V-PE/7AAD staining and analysis with flow cytometry to measure apoptosis. The bar graph represents the ratio of apoptosis (late plus early) among different groups. Values are the means±the standard deviations for 3 independent experiments. ** P≤0.01; *** P≤0.001; unpaired, 2-tailed Student t-test. FIG. 5D, HN31 (left panel) and MDA886LN (right panel) cells expressing RB1 or control shRNA were transfected with a plasmid for TRIP13. After 24 hours, cells were treated with 300 nmol/L alisertib and then lysed for immunoblotting. Cl, cleaved; Fl, full length; GAPDH, glyceraldehyde 3-phosphate dehydrogenase. […]

[4] = two HPV-negative cell lines, vs control cells

Structure (SMILES): COc1cc(Nc2ncc3c(n2)-c2ccc(Cl)cc2C(c2c(F)cccc2OC)=NC3)ccc1C(=O)O [ALISERTIB, alisertib]
- apoptosis (TUNEL) [1]: no appreciable levels of apoptosis
- TUNEL-positive apoptotic nuclei [2]: significantly increased
- protein levels of RBL2 (HPV-negative cell lines): decreased
- Rb expression (single cell staining) (HPV-negative cell lines; [4]): notably lower
- cleaved caspase 3 (single cell staining) (HPV-negative cell lines; [4]): slightly higher
- apoptosis with reduced levels of Mad2 or BUB1B [3]: rescued the cells from alisertib-induced apoptosis
